From ChEMBL document CHEMBL1201862, “PubChem BioAssay data set” (2004)
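Dose response: 5 concentrations. Exposure: 48 h. Format: 96-well plates. Endpoint: linear interpolation; highest concentration if not reached. GI50 is the concentration that inhibits growth by half.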 The source made the active and inactive calls. Cut-off read from the data, not from the text of the source: active = GI50 up to about 1.1 µM and inactive = higher.

Columns and labels:
Assay in all cases: NCI tumour cell line growth inhibition, 48 h
TK-10 = system: TK-10
NCI-H23 = system: NCI-H23
M14 = system: M14
SF-539 = system: SF-539
DLD-1 = system: DLD-1
HT-29 = system: HT-29
HOP-62 = system: HOP-62
UACC-62 = system: UACC-62
SK-MEL-2 = system: SK-MEL-2
786-0 = system: 786-0
OVCAR-3 = system: OVCAR-3
A549 = system: A549
SNB-75 = system: SNB-75
EKVX = system: EKVX
IGROV-1 = system: IGROV-1
UO-31 = system: UO-31
Hs-578T = system: Hs-578T
A498 = system: A498
MDA-N = system: MDA-N
PC-3 = system: PC-3

| SMILES | GI50 (TK-10) | GI50 (NCI-H23) | GI50 (M14) | GI50 (SF-539) | GI50 (DLD-1) | GI50 (HT-29) | GI50 (HOP-62) | GI50 (UACC-62) | GI50 (SK-MEL-2) | GI50 (786-0) | GI50 (OVCAR-3) | GI50 (A549) | GI50 (SNB-75) | GI50 (EKVX) | GI50 (IGROV-1) | GI50 (UO-31) | GI50 (Hs-578T) | GI50 (A498) | GI50 (MDA-N) | GI50 (PC-3) |
| --- | --- | --- | --- | --- | --- | --- | --- | --- | --- | --- | --- | --- | --- | --- | --- | --- | --- | --- | --- | --- |
| CCCCCCCCCCCC[N+]12CC[N+](C)(CC1)CC2 | 1.89 µM (inactive) | 20.9 µM (inactive) | 29.6 µM (inactive) | 39.4 µM (inactive) | 13.8 µM (inactive) | 16.4 µM (inactive) | 29.2 µM (inactive) | 22.6 µM (inactive) | 77.8 µM (inactive) | 13 µM (inactive) | 64.1 µM (inactive) | 54.7 µM (inactive) | 13 µM (inactive) | > 100 µM (inactive) | 1.98 µM (inactive) | > 100 µM (inactive) |  |  |  |  |
| S=c1[nH]c(=S)c2nnn(-c3ccccc3)c2[nH]1 | > 100 µM (inactive) | > 100 µM (inactive) | > 100 µM (inactive) | > 100 µM (inactive) | > 100 µM (inactive) | > 100 µM (inactive) | > 100 µM (inactive) | > 100 µM (inactive) | > 100 µM (inactive) | > 100 µM (inactive) | > 100 µM (inactive) | > 100 µM (inactive) | > 100 µM (inactive) | > 100 µM (inactive) | > 100 µM (inactive) | > 100 µM (inactive) |  |  |  |  |
| O=c1[nH]c2nc3ccccc3c(=O)n2nc1Cc1ccccc1 |  | > 100 µM (inactive) | > 100 µM (inactive) | > 100 µM (inactive) | > 100 µM (inactive) | > 100 µM (inactive) | 16.3 µM (inactive) | > 100 µM (inactive) | > 100 µM (inactive) | > 100 µM (inactive) | 44.2 µM (inactive) | > 100 µM (inactive) | > 100 µM (inactive) | > 100 µM (inactive) | 45.1 µM (inactive) | 56.8 µM (inactive) |  |  |  |  |
| O=c1n(-c2ccccc2)c(=O)n2n1C1CCC2CC1 | > 100 µM (inactive) | > 100 µM (inactive) | > 100 µM (inactive) | > 100 µM (inactive) |  | > 100 µM (inactive) | > 100 µM (inactive) | > 100 µM (inactive) | > 100 µM (inactive) | > 100 µM (inactive) | > 100 µM (inactive) | > 100 µM (inactive) | > 100 µM (inactive) | > 100 µM (inactive) | > 100 µM (inactive) | > 100 µM (inactive) | > 100 µM (inactive) | > 100 µM (inactive) | > 100 µM (inactive) | > 100 µM (inactive) |
| O=c1cc(CBr)c2ccc(O)cc2o1 | 88.5 µM (inactive) | 47.1 µM (inactive) | 59.6 µM (inactive) | > 100 µM (inactive) |  | 54.5 µM (inactive) | 17 µM (inactive) | 55.3 µM (inactive) | > 100 µM (inactive) | > 100 µM (inactive) | 32 µM (inactive) | 92.5 µM (inactive) | > 100 µM (inactive) | 21.7 µM (inactive) | 81.8 µM (inactive) | 58.5 µM (inactive) | > 100 µM (inactive) | 25.8 µM (inactive) | 98.9 µM (inactive) | 62.4 µM (inactive) |
| Cc1c(Cl)ccc2c1NC(=O)C2(O)CC(=O)c1ccc(Cl)cc1Cl (stereo unspecified) | 30.5 µM (inactive) | > 47.1 µM (inactive) | > 50 µM (inactive) | 17.7 µM (inactive) |  | > 50 µM (inactive) | 19.2 µM (inactive) | > 50 µM (inactive) | > 50 µM (inactive) | 27.2 µM (inactive) | > 46.7 µM (inactive) | > 50 µM (inactive) | 12.8 µM (inactive) | > 46.5 µM (inactive) | > 50 µM (inactive) | > 50 µM (inactive) | 12.9 µM (inactive) | 16.2 µM (inactive) | > 50 µM (inactive) | > 50 µM (inactive) |
| COc1ccc(C2C(Cl)C(=O)N2n2cnc3ccccc3c2=O)cc1 (stereo unspecified) | 98.6 µM (inactive) | 94 µM (inactive) | 28.4 µM (inactive) |  | > 100 µM (inactive) | > 100 µM (inactive) | > 100 µM (inactive) | > 100 µM (inactive) | > 100 µM (inactive) | 46.9 µM (inactive) | 85.7 µM (inactive) | > 100 µM (inactive) | 29.4 µM (inactive) | 50.7 µM (inactive) | > 100 µM (inactive) | 71 µM (inactive) |  |  |  |  |
| CCCCC1Cc2cc(OC)ccc2-c2n1c1cc(OC)ccc1[n+]2C.CCCCC1Cc2cc(OC)ccc2-c2n1c1ccc(OC)cc1[n+]2C (stereo unspecified) | 2.18 µM (inactive) | 0.839 µM (active) | 3.76 µM (inactive) | 3.34 µM (inactive) |  | 1.97 µM (inactive) | 6.08 µM (inactive) | 0.528 µM (active) | 2.46 µM (inactive) | 7.13 µM (inactive) | 1.4 µM (inactive) | 1.48 µM (inactive) | 6.19 µM (inactive) | 0.466 µM (active) | 1.6 µM (inactive) | 15.5 µM (inactive) | 2.77 µM (inactive) | 16.9 µM (inactive) | 1.47 µM (inactive) | 2.6 µM (inactive) |
| CC(=O)N1c2ccccc2C(C)(C)OC1C(Cl)(Cl)Cl (stereo unspecified) | 35.9 µM (inactive) | 34.1 µM (inactive) | 34 µM (inactive) | 44.5 µM (inactive) |  | 24.2 µM (inactive) | 55.8 µM (inactive) | 37 µM (inactive) | 45.1 µM (inactive) | 39 µM (inactive) | 33.1 µM (inactive) | 27.7 µM (inactive) | 17.1 µM (inactive) | 26.2 µM (inactive) | 41.8 µM (inactive) | 58.2 µM (inactive) | 22.6 µM (inactive) | 37 µM (inactive) | 26.1 µM (inactive) | 31.8 µM (inactive) |
| CN1CCN(C2=CC(=O)c3c(O)ccc(O)c3C2=O)CC1 | 2.74 µM (inactive) | 1.4 µM (inactive) | 0.647 µM (active) | 1.61 µM (inactive) |  | 0.302 µM (active) | 1 µM (active) | 1.65 µM (inactive) | 2.45 µM (inactive) | 1.95 µM (inactive) | 0.23 µM (active) | 1.79 µM (inactive) | 1.61 µM (inactive) | 1.86 µM (inactive) | 1.64 µM (inactive) | 1.55 µM (inactive) | 2.03 µM (inactive) | 1.54 µM (inactive) | 0.175 µM (active) | 0.412 µM (active) |
| N/C(=N\O)N/N=C/c1cc(Br)cc(Br)c1O | 5.35 µM (inactive) | 7.06 µM (inactive) | 2.43 µM (inactive) | 4.49 µM (inactive) |  | 11.4 µM (inactive) | 4.21 µM (inactive) | 1.46 µM (inactive) | 8.04 µM (inactive) | 1.91 µM (inactive) | 2.37 µM (inactive) | 5.27 µM (inactive) | 2.86 µM (inactive) | 14.9 µM (inactive) | 0.507 µM (active) | 1.92 µM (inactive) | 26.9 µM (inactive) | 3.96 µM (inactive) | 10.8 µM (inactive) | 5.74 µM (inactive) |
| NC(=O)NCCSC1CCCCC1O (stereo unspecified) | > 100 µM (inactive) | > 100 µM (inactive) | > 100 µM (inactive) | > 100 µM (inactive) |  | > 100 µM (inactive) | > 100 µM (inactive) | > 100 µM (inactive) | > 100 µM (inactive) | > 100 µM (inactive) | > 100 µM (inactive) | > 100 µM (inactive) | > 100 µM (inactive) | > 100 µM (inactive) | > 100 µM (inactive) | > 100 µM (inactive) | > 100 µM (inactive) | > 100 µM (inactive) | > 100 µM (inactive) | > 100 µM (inactive) |
| Cn1c(-c2cccs2)cc(-c2cccs2)c1-c1cccs1 | > 100 µM (inactive) | 13.6 µM (inactive) | > 79.8 µM (inactive) | > 100 µM (inactive) |  | > 100 µM (inactive) | > 100 µM (inactive) | 11.9 µM (inactive) | 44 µM (inactive) | > 100 µM (inactive) | 43.8 µM (inactive) | > 96.6 µM (inactive) | 53.3 µM (inactive) | 39.2 µM (inactive) | 51.8 µM (inactive) | > 96.4 µM (inactive) | 44.5 µM (inactive) | > 100 µM (inactive) | 55.2 µM (inactive) | > 100 µM (inactive) |
| CC(=O)OCC1OC(n2c(N)c(C#N)c(-c3ccc(C)cc3)c(C#N)c2=S)C(OC(C)=O)C(OC(C)=O)C1OC(C)=O (stereo unspecified) | 18.5 µM (inactive) | 21.1 µM (inactive) | 16.4 µM (inactive) | 4.91 µM (inactive) |  | 18.7 µM (inactive) | 20 µM (inactive) | 43.5 µM (inactive) | 15.2 µM (inactive) | 15.7 µM (inactive) | 31.3 µM (inactive) | 16 µM (inactive) | 16 µM (inactive) | 18.3 µM (inactive) | 20.3 µM (inactive) | 17.9 µM (inactive) | 19.8 µM (inactive) | 39.9 µM (inactive) | 17.1 µM (inactive) | 31.8 µM (inactive) |
| CCCCCCCCCCCCCCCCNc1ccn(C2CC(O)C(COC(c3ccccc3)(c3ccccc3)c3ccc(OC)cc3)O2)c(=O)n1 (stereo unspecified) | > 100 µM (inactive) | > 100 µM (inactive) | > 100 µM (inactive) | > 100 µM (inactive) |  | > 100 µM (inactive) | > 100 µM (inactive) | > 100 µM (inactive) | > 100 µM (inactive) | > 100 µM (inactive) | > 100 µM (inactive) | > 100 µM (inactive) | > 100 µM (inactive) | > 100 µM (inactive) | > 100 µM (inactive) | 20.9 µM (inactive) | > 100 µM (inactive) | > 100 µM (inactive) | > 100 µM (inactive) | > 100 µM (inactive) |
